Experiment: passive permeability, PAMPA, ADME assay (AID 1508612)
Conditions: pH 7.4, 30.0 min, 50.0 µM

Row | Compound | Papp [×10⁻⁶ cm/s]
1 | Cc1ccc(S(=O)(=O)Nc2cnccc2C(=O)Nc2ccc(N3CCOCC3)cc2)cc1 | 53.3
2 | COc1cc([C@@H]2c3cc4c(cc3[C@H](O)[C@H]3COC(=O)[C@H]23)OCO4)cc(OC)c1OC | 224
3 | Cc1ccc(S(=O)(=O)Nc2cnccc2C(=O)Nc2nc(-c3ccc(C)c(C)c3)cs2)cc1 | > 1000
4 | CC(=O)N1CCc2c(sc3c2c(=O)n(-c2ccccc2Cl)c(=O)n3Cc2cccc(C)c2)C1 | 338
5 | CCN1CCN(c2ccc(Nc3ccc(-c4ccc(C(N)=O)cc4)n4ncnc34)cc2)CC1 | 747
6 | CCOc1ccc(CCNC(=O)c2cccc(C(=O)c3ccccc3)c2)cc1OCC | > 1000
7 | COc1ccc(NC(=O)c2[nH]c(C)c(C(C)=O)c2C)cc1[S+](=O)([O-])Nc1ccccc1C#N | 71
8 | COCc1cc(C)nc(SCC(=O)c2ccc(O)c(O)c2)c1C#N | 118
9 | Cc1ccc(-c2csc(Nc3ccc(S(=O)(=O)Nc4nccs4)cc3)n2)cc1C | 22
10 | O=C(CCc1ccccc1)Nc1ccc(S(=O)(=O)Nc2nccs2)cc1 | 9.34
11 | O=C(Nc1ccc(N2CCC(N3CCCCC3)CC2)c(C(=O)O)c1)c1ccc(Br)cc1 | < 1
12 | COc1cccc(NS(=O)(=O)c2ccc(NCc3cccc(OC)c3O)cc2)c1 | 603
13 | O=[S+]([O-])(Nc1ccc(N2CCNCC2)cc1)c1ccc(NCc2ccc(Cl)cc2O)cc1 | 6.78
14 | CCOC(=O)C1CCN(c2nc(-c3ccc(Br)cc3)cs2)CC1 | 120
15 | Cc1ccc(-n2nc3c(=O)n(CCCC(=O)NC(C)c4ccccc4)nc(C)c3c2C)cc1 (stereo not drawn) | 695
16 | CCN1C(=O)c2ccccc2[S@](=O)c2ccc(C(=O)NCc3ccc(F)cc3)cc21 | > 1000
17 | CNc1sc(-c2cccc3ccccc23)nc1C#N | 716
18 | O=C(CCCN1CCC(n2c(=O)[nH]c3ccccc32)CC1)c1ccc(F)cc1 | 952
19 | CCCCCCOc1ccc(OC(=O)c2ccncc2)cc1 | 600
20 | COc1ccc(Cn2c(C(=O)O)c(CNCc3cccc(OC)c3)c3ccc(C)cc32)cc1 | 361
21 | Cc1ccc(S(=O)(=O)Nc2cnccc2C(=O)Nc2nc(-c3ccc(Oc4ccccc4)cc3)cs2)cc1 | 44.4
22 | COC(=O)c1ccc2c(c1)nc1n2[C@@H](CNC(C)=O)COC1 | 4.45
23 | S=c1[nH]c2ccccc2n1CCc1ccccc1 | 126
24 | Clc1ccccc1Nc1nc(-c2ccncc2)nc2ccccc12 | > 1000
25 | Cc1ccc(S(=O)(=O)Nc2cnccc2C(=O)Nc2nc3ccccc3s2)cc1 | 475

Row | Compound | Papp [×10⁻⁶ cm/s]
26 | COc1ccnc(NC(=S)N2CCN(c3ccc(Cl)c(Cl)c3)CC2)c1 | 601
27 | O=C(c1ccc2c(c1)ncn2-c1ccc(Cl)cc1)N1CCCCC1 | > 1000
28 | CCOC(=O)C1CCN(C(=O)C2(NC(=O)Nc3ccccc3Cl)CCCC2)CC1 | 229
29 | CCOc1ccc(CCNC(=O)c2cc3ccncc3n2Cc2cccc(C)n2)cc1OCC | 3.77
30 | CCOc1ccccc1N(CC(=O)N1CCOCC1)S(=O)(=O)c1ccc(SC)cc1 | 550
31 | Cc1c(C(=O)NN2CCCCC2)nn(-c2ccc(Cl)cc2Cl)c1-c1ccc(Cl)cc1 | > 1000
32 | Cc1cc(-c2cc3c(nc2-c2ccccc2)nc(C(=O)NCCN(C)C)n3C)ccn1 | 320
33 | Cc1ccc(-c2cc(C(=O)Nc3ccccn3)c3ccccc3n2)cc1 | > 1000
34 | NC(=O)C1CCN(c2nc(-c3cccnc3)cs2)CC1 | 23.2
35 | CCCC1=Nc2cc(C(=O)NC3CCCC3)ccc2Sc2ccc(C)cc21 | 662
36 | c1ccc(Nc2nc(NCc3ccco3)c3ccccc3n2)cc1 | 930
37 | CCOC(=O)Nc1cc(-c2ccc(C)c(NS(C)(=O)=O)c2)nn2c(C)nnc12 | 278
38 | CC1=Nc2cc(C(=O)NCc3ccccc3Cl)ccc2Sc2c(C)ccc(C)c21 | 161
39 | O=c1[nH]c(C2CCN(CC3CCCCC3)CC2)nn1Cc1ccccc1 | < 1
40 | COc1ccc(-c2ccc3ncc(Nc4ccc(C(N)=O)cc4)n3n2)cc1OC | 149
41 | COC(=O)C1=COC(C)C2CN3CCc4c([nH]c5cc(OC)c(OC)cc45)C3CC12 (stereo not drawn) | 366
42 | Cc1ccccc1C(=O)N1CCc2cc(-c3nc(NC(=O)c4ccc5c(c4)OCO5)sc3C)ccc21 | 569
43 | CC(=O)Nc1cccc(-c2csc(Nc3cc(C)ccn3)n2)c1 | > 1000
44 | CC[C@H]1CN2CCC3CC(OC)C(OC)CC3[C@@H]2C[C@@H]1C[C@H]1NCCC2=C1CC(OC)=C(O)C2 (stereo partly drawn) | 153
45 | COC(=O)c1cccc(NC(=O)c2cnc(-c3ccc(F)cc3)nc2-c2ccncc2)c1 | > 1000
46 | Cc1ccc(-c2cc(C(=O)Nc3ccc(S(=O)(=O)NCc4nccs4)cc3)c3ccccc3n2)cc1C | 6
47 | COC(=O)c1c(NC(=O)Cc2coc3cc(C)ccc23)sc2c1CCC2 | 26
48 | CCc1ccc(NC(=O)c2[nH]c(C)c(C(C)=O)c2C)cc1[S+](=O)([O-])Nc1ccccc1C#N | 74.2
49 | Cc1ccc(NC(=O)CSc2ncc(S(=O)(=O)c3ccc(C(C)C)cc3)c(=O)[nH]2)cc1C | 1.8
50 | COc1c(O)cc2c(c1OC)-c1ccc(SC)c(=O)cc1C(NC(C)=O)CC2 (stereo not drawn) | 19.5

Row | Compound | Papp [×10⁻⁶ cm/s]
51 | COc1ccccc1S(=O)(=O)Nc1cnccc1C(=O)Nc1nc(-c2ccccc2)cs1 | 387
52 | CN1C[C@@H]2C[C@H]1CN2c1cc2c(cc1F)c(=O)c(C(=O)O)cn2C1CC1 | < 1
53 | O=c1[nH]c(N2CCOCC2)nc2c1CCN(Cc1ccc(Cl)cc1F)CC2 | > 1000
54 | Cc1ccc(S(=O)(=O)Nc2cnccc2C(=O)Nc2nc(-c3ccc(F)cc3)cs2)cc1 | 423
55 | Clc1cccc(Nc2nc(-c3ccncc3)nc3ccccc23)c1 | 250
56 | COc1ccccc1-c1nnc2sc(-c3ccc(N(C)C)cc3)nn12 | 278
57 | CC(C)c1nc(CN(C)C(=O)N[C@H](C(=O)N[C@@H](Cc2ccccc2)C[C@H](O)[C@H](Cc2ccccc2)NC(=O)OCc2cncs2)C(C)C)cs1 | > 1000
58 | O=C(c1cnccn1)N1CCC2(CCCN(C(c3ccccc3)c3ccccc3)C2)CC1 | 3
59 | Nc1nc2c(s1)C(c1cccc(Cl)c1Cl)CC(=O)N2 (stereo not drawn) | 505
60 | COc1ccc(C(=O)N2CCCC(c3nn(-c4ccc(OC)cc4)c(=O)[nH]3)C2)cc1 (stereo not drawn) | 599
61 | CC[C@H](NC(=O)c1c(O)c(-c2ccccc2)nc2ccccc12)c1ccccc1 | 298
62 | COc1cccc(C(=O)Nc2nc(-c3nnn(-c4cccc(Cl)c4C)c3C)ns2)c1 | 321
63 | O=C(NCc1cccc(C(F)(F)F)c1)c1ccc(CN2CCCCC2)cc1 | > 1000
64 | Cn1c2ccccc2c(=O)c2c(=O)n(-c3ccccc3)c(C3CCCCC3)nc21 | 440
65 | O=C(CNC(=O)c1cnccn1)NC1CCCc2c1[nH]c1ccc(Cl)cc21 (stereo not drawn) | > 1000
66 | Cc1ccc(CN2CCOC[C@H]2c2ncc(-c3cccc(F)c3)[nH]2)cc1 | > 1000
67 | CC1=Nc2cc(C(=O)NCCc3ccccc3)ccc2Sc2c(C)ccc(C)c21 | 359
68 | CC(C)C[C@H]1C(=O)N2CCC[C@H]2[C@]2(O)O[C@](NC(=O)[C@@H]3C=C4c5cccc6[nH]c(Br)c(c56)C[C@H]4N(C)C3)(C(C)C)C(=O)N12 | 876
69 | COc1cc2c(cc1Oc1cccc(N(C)C)c1)NC(=O)C21CCN(c2cnccn2)CC1 | > 1000
70 | CC(C)(C)c1cc(NC(=O)Nc2ccc(-c3cn4c(n3)sc3cc(OCCN5CCOCC5)ccc34)cc2)no1 | < 1
71 | COc1ccc2[nH]c(=O)c(-c3noc(-c4ccc(F)cc4)n3)cc2c1 | 63
72 | Cc1ccc(S(=O)(=O)Nc2cnccc2C(=O)Nc2nc(-c3cc4ccccc4o3)cs2)cc1 | 2.48
73 | Cc1ccc(S(=O)(=O)Nc2ccccc2C(=O)Nc2ccc(-c3ccccc3)nc2)cc1 | 54.3

Source: PubChem BioAssay AID1508612
